This passage reports EC50 and IC50 results from patent US7098228B2, “Indolyl derivatives” (Hoffmann-La Roche Inc., priority 2002, dated 2006).

One assay has as its target T1, PPARα (Homo sapiens, UniProt Q07869).
T1 construct: PPARα (aa 167 to 469); expressed in transfected cells; host or cells: BHK21 (ATCC CCL10)
T1 sequence (Q07869 167-468 limits assumed): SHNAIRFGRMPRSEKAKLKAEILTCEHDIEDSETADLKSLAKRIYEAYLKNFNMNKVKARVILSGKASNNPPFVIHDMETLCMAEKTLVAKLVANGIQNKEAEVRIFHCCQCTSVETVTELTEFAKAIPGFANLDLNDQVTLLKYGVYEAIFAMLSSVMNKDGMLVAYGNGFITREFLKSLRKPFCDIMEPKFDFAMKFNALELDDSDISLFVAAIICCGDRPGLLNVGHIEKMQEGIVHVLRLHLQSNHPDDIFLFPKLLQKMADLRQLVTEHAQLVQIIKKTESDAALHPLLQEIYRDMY
The assay is described as follows: Luciferase transcriptional reporter gene assay, pFA-PPARα-LBD in BHK21 cells. The class given is cell-based. An excerpt: (§1) Full-length cDNA clones for human PPARα and mouse PPARγ were obtained by RT-PCR from human adipose and mouse liver cRNA, respectively, cloned into plasmid vectors and verified by DNA sequencing. […] To accomplish this, the portions of the cloned sequences encoding the LBDs were amplified from the full-length clones by PCR and then subcloned into the plasmid vectors. Final clones were verified by DNA sequence analysis.
(§2) Luciferase Transcriptional Reporter Gene Assays
(§3) Baby hamster kidney cells (BHK21 ATCC CCL10) were grown in DMEM medium containing 10% FBS at 37° C. in a 95% O2:5% CO2 atmosphere. Cells were seeded in 6 well plates at a density of 10^5 Cells/well and then batch-transfected with either the pFA-PPARγ-LBD or pFA-PPARα-LBD expression plasmids plus the pFR-luc reporter plasmid and an expression plasmid encoding the secretable form of alkaline phosphatase (SEAP) as a normalization control. […] Six hours following transfection, the cells were harvested by trypsinization and seeded in 96 well plates at a density of 10^4 cells/well. After 24 hours to allow attachment of cells, the medium was removed and replaced with 100 ul of phenol red-free medium containing the test substances or control ligands (final. 0.1% DMSO). Following incubation of the cells for 24 hours with substances, 50 ul of the supernatant was recovered and analyzed for SEAP activity (Roche Molecular Biochemicals). The remainder of the supernatant was discarded, 50 ul PBS was added per well followed by one volume of Luciferase Constant-Light Reagent (Roche Molecular Biochemicals) to lyse the cells and initiate the luciferase reaction. Luminescence for both SEAP and luciferase was measured in a Packard TopCount. Luciferase activity was normalized to the SEAP control and transcriptional activation in the presence of a test substance was expressed as fold-activation over cells incubated in the absence of the substance. EC50 values were calculated using the XLfit program (ID Business Solutions Ltd. UK).
A general note: Reporter assays use an easily measured gene product as a stand-in for the process of interest.

The target of assay [1] is T2, PPARγ (Mus musculus, UniProt P37238).
T2 sequence (P37238 204-505): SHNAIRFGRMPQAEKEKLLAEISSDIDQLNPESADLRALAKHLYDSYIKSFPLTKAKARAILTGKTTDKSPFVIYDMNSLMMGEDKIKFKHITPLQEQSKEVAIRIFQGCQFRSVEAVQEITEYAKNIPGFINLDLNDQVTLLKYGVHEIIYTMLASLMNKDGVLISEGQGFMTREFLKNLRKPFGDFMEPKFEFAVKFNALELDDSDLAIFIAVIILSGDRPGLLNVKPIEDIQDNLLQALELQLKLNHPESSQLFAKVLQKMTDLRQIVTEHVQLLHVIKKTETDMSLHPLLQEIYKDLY
Briefly: PPARγ radioligand binding assay (scintillation proximity, GST-PPARγ-LBD). Also noted: made in house; host or cells: E. coli BL21 (pLysS).
Excerpt: as §1
Induction, expression, and purification of GST-LBD fusion proteins were performed in E. coli strain BL21 (pLysS) cells by standard methods (Ref: Current Protocols in Molecular Biology, Wiley Press, edited by Ausubel et al.).
Radioligand Binding Assay
PPARγ receptor binding was assayed in TKE50 (50 mM Tris-HCl, pH 8, 50 mM KCl, 2 mM EDTA, 0.1 mg/ml fatty acid-free BSA and 10 mM DTT). For each 96 well reaction an 140 ng equivalent of GST-PPARγ-LBD fusion protein was bound to 10 ug SPA beads (PharmaciaAmersham) in a final volume of 50 ul by shaking. The resulting slurry was incubated for 1 h at RT and centrifuged for 2 min at 1300 g. The supernatant containing unbound protein was removed and the semidry pellet containig the recptor-coated beads was resolved in 50 ul of TKE. For radioligand binding e.g. 10000 dpm 2(S)-(2-benzoyl-phenylamino)-3-{4-[1,1-ditritio-2-(5-methyl-2-phenyl-oxazol-4-yl) -ethoxy]-phenyl}-propionic acid in 50 ul were added, the reaction incubated at RT for 1 h and scintillation proximity counting performed. All binding assays were performed in 96 well plates and the amount of bound ligand measured on a Packard TopCount using OptiPlates (Packard). Nonspecific binding was determined in the presence of 10^−4 M unlabelled compound. Dose response curves were done in triplicates within a range of concentration from 10^−10 M to 10^−4 M.
(SPA uses beads or plates that emit light when radiolabelled molecules are held near them.)

Assay [2] deals with T2, PPARγ. Briefly: Luciferase transcriptional reporter gene assay, pFA-PPARγ-LBD in BHK21 cells. The class given is cell-based.
Excerpt: as §1, §2, §3

In general, EC50 refers to the concentration at which the effect is half-maximal. Broadly, the IC50 is the midpoint of a concentration-inhibition curve. A high value points to a need for much substance. Consider `CCOC(Cc1cccc2c1ccn2Cc1nc(-c2cc(OC)cc(OC)c2)oc1C)C(=O)O` (racemic) [Example 1, rac-3-{1-[2-(3,5-Dimethoxy-phenyl)-5-methyl-oxazol-4-ylmethyl]-1H-indol-4-yl}-2-ethoxy-propionic acid], for which the EC50 on PPARα is 8 nM; at PPARγ [2] it was 7 nM. Moreover, the concentration for half-maximal inhibition (IC50) on PPARγ [1] is 68 nM.
The molecule `CCOC(Cc1cccc2c1ccn2CCCc1nc(-c2ccccc2)oc1C)C(=O)O` (racemic) [Example 3, rac-2-Ethoxy-3-{1-[3-(5-methyl-2-phenyl-oxazol-4-yl)-propyl]-1H-indol-4-yl}-propionic acid] displayed an EC50 at PPARα of 190 nM.
Take `CCOC(Cc1cccc2c1ccn2Cc1nc(-c2ccc(C(C)C)cc2)oc1C)C(=O)O` (racemic) [Example 2, rac-2-Ethoxy-3-{1-[2-(4-isopropyl-phenyl)-5-methyl-oxazol-4-ylmethyl]-1H-indol-4-yl}-propionic acid]: the figures for the EC50 on PPARα and on PPARγ [2] were 200 nM and 93 nM, respectively. This molecule also returned a concentration for half-maximal inhibition (IC50) on PPARγ [1] of 53 nM.
The like results for `CCOC(Cc1cccc2c1ccn2Cc1nc(-c2ccc(C(F)(F)F)cc2)oc1C)C(=O)O` (racemic) [Example 10, rac-2-Ethoxy-3-{1-[5-methyl-2-(4-trifluoromethyl-phenyl)-oxazol-4-ylmethyl]-1H-indol-4-yl}-propionic acid] were, in that order, 44 nM, 140 nM and 1400 nM.
